Test results taken from ChEMBL document CHEMBL1201862, “PubChem BioAssay data set” (2004).
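A five-concentration, 48-hour dose response in 96-well plates underlies each endpoint, interpolated linearly between surrounding concentrations. Abbreviation: GI50, concentration required for 50% inhibition of growth.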 Active and inactive are the calls of the source. Rule as the data show it: active = GI50 up to about 1.1 µM and inactive = higher.

Legend:
Experiment in all cases: NCI anticancer screen, dose series, 48 h
IGROV-1 = test system: IGROV-1
SK-OV-3 = test system: SK-OV-3
HT-29 = test system: HT-29
OVCAR-3 = test system: OVCAR-3
Hs-578T = test system: Hs-578T
UACC-62 = test system: UACC-62
NCI-H226 = test system: NCI-H226
SK-MEL-5 = test system: SK-MEL-5
EKVX = test system: EKVX
M14 = test system: M14
MDA-N = test system: MDA-N
SF-539 = test system: SF-539
UACC-257 = test system: UACC-257
KM12 = test system: KM12
MDA-MB-435 = test system: MDA-MB-435
CCRF-CEM = test system: CCRF-CEM
786-0 = test system: 786-0
Malme-3M = test system: Malme-3M
HOP-62 = test system: HOP-62
NCI/ADR-RES = test system: NCI/ADR-RES
MDA-MB-231 = test system: MDA-MB-231
OVCAR-5 = test system: OVCAR-5
ACHN = test system: ACHN
HCC 2998 = test system: HCC 2998
A498 = test system: A498
SR = test system: SR
MOLT-4 = test system: MOLT-4
NCI-H460 = test system: NCI-H460
SK-MEL-2 = test system: SK-MEL-2
BT-549 = test system: BT-549
NCI-H23 = test system: NCI-H23
SNB-75 = test system: SNB-75
UO-31 = test system: UO-31
HCT-116 = test system: HCT-116
T47D = test system: T47D
SF-268 = test system: SF-268
RPMI-8226 = test system: RPMI-8226
SNB-19 = test system: SNB-19
PC-3 = test system: PC-3
SN12C = test system: SN12C
U-251 = test system: U-251
K562 = test system: K562
HCT-15 = test system: HCT-15
COLO 205 = test system: COLO 205
HL-60 = test system: HL-60
MCF7 = test system: MCF7
LOX IMVI = test system: LOX IMVI
A549 = test system: A549
TK-10 = test system: TK-10
SW-620 = test system: SW-620
SF-295 = test system: SF-295
SK-MEL-28 = test system: SK-MEL-28
OVCAR-4 = test system: OVCAR-4
DU-145 = test system: DU-145
OVCAR-8 = test system: OVCAR-8
RXF 393 = test system: RXF 393
CAKI-1 = test system: CAKI-1

Compound: COC(=O)/C=C/c1cnc2c(c1)oc(=O)n2CCc1ccccn1
- GI50 (IGROV-1): > 100 µM (inactive)
- GI50 (SK-OV-3): > 100 µM (inactive)
- GI50 (HT-29): > 100 µM (inactive)
- GI50 (OVCAR-3): > 100 µM (inactive)
- GI50 (Hs-578T): > 100 µM (inactive)
- GI50 (UACC-62): > 100 µM (inactive)
- GI50 (NCI-H226): 17.2 µM (inactive)
- GI50 (SK-MEL-5): 59.6 µM (inactive)
- GI50 (EKVX): > 100 µM (inactive)
- GI50 (M14): > 100 µM (inactive)
- GI50 (MDA-N): 23.8 µM (inactive)
- GI50 (SF-539): > 100 µM (inactive)
- GI50 (UACC-257): > 100 µM (inactive)
- GI50 (KM12): > 100 µM (inactive)
- GI50 (MDA-MB-435): 20.8 µM (inactive)
- GI50 (CCRF-CEM): 31.6 µM (inactive)
- GI50 (786-0): > 100 µM (inactive)
- GI50 (Malme-3M): > 100 µM (inactive)
- GI50 (HOP-62): > 100 µM (inactive)
- GI50 (NCI/ADR-RES): 40.1 µM (inactive)
- GI50 (MDA-MB-231): > 100 µM (inactive)
- GI50 (OVCAR-5): > 100 µM (inactive)
- GI50 (ACHN): > 100 µM (inactive)
- GI50 (HCC 2998): > 100 µM (inactive)
- GI50 (A498): 0.773 µM (active)
- GI50 (SR): 30.8 µM (inactive)
- GI50 (MOLT-4): > 100 µM (inactive)
- GI50 (NCI-H460): > 100 µM (inactive)
- GI50 (SK-MEL-2): > 100 µM (inactive)
- GI50 (BT-549): 42.8 µM (inactive)
- GI50 (NCI-H23): > 100 µM (inactive)
- GI50 (SNB-75): > 100 µM (inactive)
- GI50 (UO-31): > 100 µM (inactive)
- GI50 (HCT-116): > 100 µM (inactive)
- GI50 (T47D): 50.6 µM (inactive)
- GI50 (SF-268): > 100 µM (inactive)
- GI50 (RPMI-8226): > 100 µM (inactive)
- GI50 (SNB-19): > 100 µM (inactive)
- GI50 (PC-3): 90.2 µM (inactive)
- GI50 (SN12C): > 100 µM (inactive)
- GI50 (U-251): > 100 µM (inactive)
- GI50 (K562): 73.3 µM (inactive)
- GI50 (HCT-15): > 100 µM
- GI50 (COLO 205): > 100 µM (inactive)
- GI50 (HL-60): 1.35 µM (inactive)
- GI50 (MCF7): > 100 µM (inactive)
- GI50 (LOX IMVI): > 100 µM (inactive)
- GI50 (A549): > 100 µM (inactive)
- GI50 (TK-10): > 100 µM (inactive)
- GI50 (SW-620): 92 µM (inactive)
- GI50 (SF-295): > 100 µM (inactive)
- GI50 (SK-MEL-28): > 100 µM (inactive)
- GI50 (OVCAR-4): > 100 µM (inactive)

Compound: CCOC(=O)c1c(NC(=S)Nc2ccc(C)cc2)sc2c1CCN(C)C2
- GI50 (IGROV-1): > 100 µM (inactive)
- GI50 (HT-29): > 100 µM (inactive)
- GI50 (OVCAR-3): > 100 µM (inactive)
- GI50 (Hs-578T): > 100 µM (inactive)
- GI50 (UACC-62): > 100 µM (inactive)
- GI50 (NCI-H226): > 100 µM (inactive)
- GI50 (SK-MEL-5): > 100 µM (inactive)
- GI50 (DU-145): > 100 µM (inactive)
- GI50 (EKVX): > 100 µM (inactive)
- GI50 (M14): > 100 µM (inactive)
- GI50 (MDA-N): > 100 µM (inactive)
- GI50 (SF-539): > 100 µM (inactive)
- GI50 (UACC-257): > 100 µM (inactive)
- GI50 (KM12): 81.7 µM (inactive)
- GI50 (CCRF-CEM): > 100 µM (inactive)
- GI50 (786-0): > 100 µM (inactive)
- GI50 (HOP-62): > 100 µM (inactive)
- GI50 (NCI/ADR-RES): > 100 µM (inactive)
- GI50 (MDA-MB-231): > 100 µM (inactive)
- GI50 (OVCAR-5): > 100 µM (inactive)
- GI50 (ACHN): > 100 µM (inactive)
- GI50 (OVCAR-8): > 100 µM (inactive)
- GI50 (A498): 59 µM (inactive)
- GI50 (RXF 393): > 100 µM (inactive)
- GI50 (MOLT-4): > 100 µM (inactive)
- GI50 (NCI-H460): > 100 µM (inactive)
- GI50 (SK-MEL-2): > 100 µM (inactive)
- GI50 (BT-549): > 100 µM (inactive)
- GI50 (NCI-H23): > 100 µM (inactive)
- GI50 (SNB-75): < 0.01 µM (active)
- GI50 (UO-31): > 100 µM (inactive)
- GI50 (HCT-116): > 100 µM (inactive)
- GI50 (T47D): > 100 µM (inactive)
- GI50 (SF-268): > 100 µM (inactive)
- GI50 (RPMI-8226): > 100 µM (inactive)
- GI50 (SNB-19): > 100 µM (inactive)
- GI50 (PC-3): > 100 µM (inactive)
- GI50 (SN12C): > 100 µM (inactive)
- GI50 (K562): > 100 µM (inactive)
- GI50 (HCT-15): > 100 µM
- GI50 (COLO 205): > 100 µM (inactive)
- GI50 (HL-60): 94.6 µM (inactive)
- GI50 (MCF7): > 100 µM (inactive)
- GI50 (A549): > 100 µM (inactive)
- GI50 (TK-10): > 100 µM (inactive)
- GI50 (SF-295): > 100 µM (inactive)
- GI50 (CAKI-1): > 100 µM (inactive)
